Values quoted from earlier work as cited in US11033613B2, “Methods and compositions for treating cancer” (Memorial Sloan Kettering Cancer Center, priority 2015, dated 2021).

Tested on: CD4+ and CD8+ responses
Conditions: according to data from preclinical and phase 1 studies

Sequence: SGQAYMFPNAPYLPSCLES [WT1-122A1 long]
- stimulation of CD4+ and CD8+ responses: stimulate both CD4+ and CD8+ responses
